Values of other authors, collected in paper PMC11084461, “The First Reciprocal Activities of Chiral Peptide Pharmaceuticals: Thymogen and Thymodepressin, as Examples” (International Journal of Molecular Sciences, 2024).
Read-outs that look alike come from different tables or passages of the source.

Columns and labels:
thymocyte regeneration = system: thymocyte regeneration; set-up: method as in PMID 6971758; settings: same conditions for all isomers
[1] = system: hematopoietic stem cell progenitors; set-up: method as in ref 82 = [82]; 82. Vladimirskaya E.B. Osipova Y.E. Kaznacheev K.S. Ivanova K.A. Deigin V.I. Rumyantsev A.G. The effect of Thymodepressin on the proliferation of human hematopoietic progenitor cells Hematol. Transfus; settings: in vitro in methylcellulose, MTT test; dose range from 1 µg/mL to 10 µg/mL
[2] = system: colony-forming unit (CFU); set-up: method as in PMID 30927190; settings: lethally irradiated mice, i/p on days 1, 2 and 3 after allogeneic bone marrow transplantation
psoriasis vulgaris = system: psoriasis vulgaris; set-up: method as in PMID 15199399
autoantibodies = system: autoantibodies; set-up: method as in ref 97 = [97]; 97. Krasilshchikova M. Leonov V. Zatsepina O. Deigin V. Immunosuppressor studies of Thymodepressin in the experimental autoimmune model Immunology 2009 5 290 294; settings: SJL/J mouse
bone marrow = system: bone marrow; set-up: method as in ref 92 = [92]; 92. Dyadkin V.Y. Shamov B.A. The experimental application of Thymodepressin in patients with psoriasis Dermatology 2003 1 36; settings: pre-treatment two days before irradiation; seven days after irradiation, persisted 14 observation days
CFU-C-8 cells = system: CFU-C-8 cells; set-up: method as in PMID 19145362
mature T-lymphocyte = system: mature T-lymphocyte; set-up: method as in PMID 12360601; settings: indicated by changed CD25+ and CD69+ markers
[3] = system: hematopoietic progenitor cells; set-up: method as in ref 74 = [74]; 74. Semina O.V. Semenets T.N. Deigin V.I. Korotkov A.M. Vinogradova Y.E. Poverenny A.M. Stimulation with Thymogen (EW), a dipeptide that has immunoprotective properties to restore hematopoiesis in irr; settings: mice; for Protective effect on hematopoietic progenitor cells after Cytosar treatment: administered two days before Cytosar injection
bone marrow cells = system: bone marrow cells; set-up: method as in PMID 16307056; settings: mice irradiated 4 Gy, treated seven days after irradiation, read on day eight
leukocytes = system: leukocytes; set-up: method as in ref 75 = [75]; 75. Vinogradova Y.E. Deigin V.I. Korotkov A.M. Semina O.V. Sements T.N. Poverenny A.M. Use of Thymogen for the treatment of patients with diseases of the blood system. The influence of Thymogen on the; settings: patients after polychemotherapy receiving Thymogen
[4] = experimental group (29 patients)

Question: With D-Glu-D-Trp as the substance, how does the “Influence on thymocyte regeneration (restoring E-rosette-forming units)” value (“Influence on thymocyte regeneration” for short) (thymocyte regeneration) read?
Answer: effective inhibitors of thymocyte regeneration

Question: With D-Glu(D-Trp) [Thymodepressin] as the substance, how does the “Cloning efficiency of hematopoietic stem cell progenitors” value [1] read?
Answer: suppresses the cloning efficiency of all hematopoietic stem cell progenitors

Question: What about the “Influence on thymocyte regeneration” value (thymocyte regeneration) of the same substance?
Answer: effective inhibitors of thymocyte regeneration

Question: What about the “Yield of colonies compared to the control animals” value [2] of the same substance?
Answer: approximately four times

Question: What about the Clinical improvement (psoriasis vulgaris; [4]) of the same substance?
Answer: 13 patients

Question: What about the Significant clinical improvement (psoriasis vulgaris; [4]) of the same substance?
Answer: 16 patients

Question: And the “PASI (Psoriasis Area and Severity Index)” value (psoriasis vulgaris; experimental group (29 patients), 1st day of treatment, i/m 1 mL 0.1% solution)?
Answer: 26.8

Question: And the “PASI (Psoriasis Area and Severity Index)” value (psoriasis vulgaris; experimental group, 21st day, three i/m courses of 1 mL 0.1% solution daily for five days)?
Answer: 8.6

Question: And the “Decrease in the PASI index” value (psoriasis vulgaris; experimental group, day 1 to day 21)?
Answer: 70%

Question: What about the “Dose of most effective immunosuppression, therapeutic regimen” value (autoantibodies) of the same substance?
Answer: 0.7 mg/kg

Question: And the “Immunosuppressive effect, prophylactic regimen” value (autoantibodies; doses 0.14, 0.35 and 0.7 mg/kg)?
Answer: pronounced immunosuppressive effect

Question: What about the “Immunosuppressive effect, therapeutic regimen” value (autoantibodies; doses 0.14, 0.35 and 0.7 mg/kg) of the same substance?
Answer: distinct immunosuppressive effect

Question: What about the “Persistence of effect after the end of the drug administration” value (autoantibodies; prophylactic regimen) of the same substance?
Answer: over ten weeks

Question: And the “Bone marrow cell number (cellularity)” value (bone marrow)?
Answer: restored to an intact level

Question: What about the “Number of leucocytes in the blood” value (CFU-C-8 cells; experimental animal, after administration of the peptide) of the same substance?
Answer: dose-dependent transient decrease

Question: What about the “Number of committed CFU-C-8 cells in the S-phase of the cell cycle” value (CFU-C-8 cells; in vitro and in vivo) of the same substance?
Answer: reducing the number of committed CFU-C-8 cells in the S-phase

Question: What about the “Mature T-lymphocyte activation” value (mature T-lymphocyte) of the same substance?
Answer: suppression of mature T-lymphocyte activation

Question: What about the “Protective effect on hematopoietic progenitor cells after Cytosar treatment” value [3] of the same substance?
Answer: completely protected

Question: And the “Number of CFU-S-8 colonies” value ([3]; two days before Cytosar, after 3 h and up to seven days)?
Answer: restored the number of CFU-S-8 colonies to an intact level

Question: What about the “Rate of dividing bone marrow cells” value (bone marrow cells) of the same substance?
Answer: below that of the intact control

Question: For L-Glu–(L-Trp)-OH, which “Influence on thymocyte regeneration” value (thymocyte regeneration) is on record?
Answer: stimulating activity

Question: Which results are given for Cyclosporine [reference compound]?
Answer: Effective dose, prophylactic regimen (autoantibodies): 20 to 50 mg/kg; Dose at which statistically significant effect was achieved (autoantibodies; prophylactic regimen): 50 mg/kg; Protective effect on hematopoietic progenitor cells after Cytosar treatment [3]: had no effect

Question: For L-Glu-L-Trp [Thymogen], which “Influence on thymocyte regeneration” value (thymocyte regeneration) is on record?
Answer: stimulating activity

Question: And the “Average leukocyte count compared to the group receiving protocol treatment” value (leukocytes)?
Answer: doubled
